Assay results from patent US11312724B2 (ASCENTAGE PHARMA (SUZHOU) CO., LTD., priority 2021, dated 2022).

Columns and labels:
[1] = test system: MIA PaCa-2 cell; assay: Cell proliferation assay (Celltiter-Glo), MIA PaCa-2; assay type: cell-based; conditions: Homo sapiens, MIA PaCa-2, 72 h, 3 days
Summary of the method: (§1)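 Cells grew in RPMI-1640 with 10% FBS at 37 °C, 5% CO2, seeded at 5000/well during exponential growth. Compounds were tested at 0–10 μM in a 3-fold series for 3 days. Viability was read by CellTiter-Glo luminescence, and IC50 was taken from dose-response curves.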

[2] = test system: NCI-H358 cell; assay: Cell proliferation assay (Celltiter-Glo), NCI-H358; assay type: cell-based; conditions: Homo sapiens, NCI-H358, 72 h, 3 days
Summary of the method: as §1

[3] = Mouse PK studies, single i.v. and p.o. dose; assay type: in vivo, CD1 mice; conditions: male, CD1, mouse, plasma; for half-life: terminal half-life

IC50 [1] [nM] | IC50 [2] [nM] | AUC(0-inf) ([3]; 2 mg/kg, IV 2 mpk) [ng·h/mL] | AUC(0-t) ([3]; 2 mg/kg, IV 2 mpk) [ng·h/mL] | MRT inf ([3]; 2 mg/kg, IV 2 mpk) [h] | half-life ([3]; 2 mg/kg, IV 2 mpk) [h] | Vd ([3]; 2 mg/kg, IV 2 mpk, read-out: Vss) [L/kg] | AUC(0-inf) ([3]; 10 mg/kg, PO 10 mpk) [ng·h/mL] | AUC(0-t) ([3]; 10 mg/kg, PO 10 mpk) [ng·h/mL] | Cmax ([3]; 10 mg/kg, PO 10 mpk) [ng/mL] | MRT inf ([3]; 10 mg/kg, PO 10 mpk) [h] | half-life ([3]; 10 mg/kg, PO 10 mpk) [h] | bioavailability ([3]; 10 mg/kg, PO 10 mpk vs IV 2 mpk) [%] | SMILES
1.1 | 2.5 | 1200 | 1200 | 0.824 | 1.45 | 1.37 | 2900 | 2650 | 856 | 3.26 | 2.39 | 48.2 | C=CC(=O)N1CCN(c2nc(OC[C@@H]3CCCN3C)nc3c2CC[C@@]2(CCc4c(Cl)cccc42)C3)C[C@@H]1CC#N [Cpd. No. 53, 2-((S)-1-acryloyl-4-((R)-4-chloro-2′-(((S)-1-methylpyrrolidin-2-yl)methoxy)-2,3,5′,8′-tetrahydro-6′H-spiro[indene-1,7′-quinazolin]-4′-yl)piperazin-2-yl)acetonitrile]
16 | 28 | – | – | – | – | – | – | – | – | – | – | – | C=C(F)C(=O)N1CCN(c2nc(OC[C@@H]3CCCN3C)nc3c2CC[C@@]2(CCc4c(Cl)cccc42)C3)C[C@@H]1CC#N [Cpd. No. 54, 2-((S)-4-((R)-4-chloro-2′-(((S)-1-methylpyrrolidin-2-yl)methoxy)-2,3,5′,8′-tetrahydro-6′H-spiro[indene-1,7′-quinazolin]-4′-yl)-1-(2-fluoroacryloyl)piperazin-2-yl)acetonitrile]
1.8 | 2.2 | – | – | – | – | – | – | – | – | – | – | – | C=CC(=O)N1CCN(c2nc(OC[C@@H]3CCCN3C)nc3c2CCC2(COCc4c(F)cccc42)C3)C[C@@H]1CC#N (some centres unmarked) [compound 26]
